In article PMC7098370 (Toxicological Sciences, 2020):
Like-named read-outs stand apart in the source and are kept apart here. Marks after values point to notes of the source that are not given here.

Assays:
rats [1] = assay: Acute oral toxicity testing; assay type: in vivo, rat
[2] = Mass balance study: urinary and fecal Co excretion after single oral gavage; assay type: in vivo, rat; conditions: single oral bolus 300 mg/kg bw (220 mg Co/kg bw), 72 h
[3] = Bioelution in simulated intestinal fluid; conditions: for Bioelution of Co in intestinal fluid (% release) / Bioelution of Co in intestinal fluid / cobalt release (µg Co/g sample): simulated intestinal fluid pH 7.4, 24 h
Crl:CD(SD) rats [4] = assay: Benchmark dose modeling; parameters: species or system rat; conditions: nonconstant variance
[5] = Bioelution in simulated gastric fluid; conditions: for Bioelution of Co in gastric fluid (% release), 2 h / Bioelution of Co in gastric fluid / cobalt release (µg Co/g sample), 2 h: simulated gastric fluid pH 1.5, 2 h, 37°C
Crl:CD(SD) rats [6] = assay: Subchronic 90-day oral RDT study with reproductive toxicity screening; assay type: in vivo, rat
[7] = Plasma toxicokinetic study; assay type: in vivo, rat; conditions: for C max / K el / t 1/2 / Bioavailability (relative): 300 mg test item/kg PO; for oral bioavailability: single oral bolus, males and females not distinguished; for Bioavailability (relative): vs CoCl2 IV
Crl:CD(SD) rats [8] = assay: Combined RDT study with reproduction/developmental toxicity screening test; assay type: in vivo, rat; conditions: for mean body weight of pups below the control: high dose; for premature deaths / NOAEL (F0 generation) / NOAEL (F1 generation) / NOAEL (reproductive toxicity): oral gavage; for premature deaths: all doses; for NOAEL (F0 generation) / NOAEL (F1 generation) / NOAEL (reproductive toxicity): rats
rats [9] = conditions: oral, ref Domingo et al. (1984), cited from earlier work
[10] = female HGB dataset, Exponential 5 model
[11] = male PLT dataset, Exponential 2 model
[12] = females, 73.4 mg Co/kg bw/day, end of 90-day oral exposure, experimental group
[13] = females, 220 mg Co/kg bw/day, end of 90-day oral exposure, experimental group
[14] = females, 734 mg Co/kg bw/day, end of 90-day oral exposure, experimental group
[15] = females, 734 mg Co/kg bw/day, recovery group, end of 28-day recovery period
[16] = females, 734 mg Co/kg bw/day, recovery group, end of 90-day oral exposure
[17] = males, 73.4 mg Co/kg bw/day, end of 90-day oral exposure, experimental group
[18] = males, 220 mg Co/kg bw/day, end of 90-day oral exposure, experimental group
[19] = males, 734 mg Co/kg bw/day, end of 90-day oral exposure, experimental group
[20] = males, 734 mg Co/kg bw/day, recovery group, end of 28-day recovery period
[21] = males, 734 mg Co/kg bw/day, recovery group, end of 90-day oral exposure
[22] = listed as Co Sulfate Heptahydrate

## [O]=[Co].[O]=[Co][O][Co]=[O] [Co3O4, Tricobalt tetraoxide]
Rats [1]; OECD 401 or 425
  Acute LD50 (mg Co/kg bw): > 8076 mg Co/kg bw
  Acute LD50 (mg substance/kg bw): exceeding 11 000 mg substance/kg bw
Rats [1]; OECD 401 or 425, listed as Tricobalt Tetraoxide
  Acute LD50 (mg substance/kg bw): > 11 000 mg substance/kg bw
[2]; females
  Fecal Excretion (%): 95.2 % of Co applied
  Sum of Urinary and Fecal Excretion (%): 95.3 % of Co applied
  Urinary Excretion (%): 0.12 % of Co applied
[2]; males
  Fecal Excretion (%): 116.4 % of Co applied
  Sum of Urinary and Fecal Excretion (%): 116.5 % of Co applied
  Urinary Excretion (%): 0.13 % of Co applied
[3]
  Bioelution of Co in intestinal fluid (% release): 0.05 (24 h) % release
  Bioelution of Co in intestinal fluid / cobalt release (µg Co/g sample): 385 (24 h) µg Co/g sample
Crl:CD(SD) rats [4]; [10]
  BMD1STD: 210 mg Co/kg bw/day
  BMDL1STD: 115 mg Co/kg bw/day
Crl:CD(SD) rats [4]; [11]
  BMD1STD: 317 mg Co/kg bw/day
  BMDL1STD: 219 mg Co/kg bw/day
[5]
  Bioelution of Co in gastric fluid (% release), 2 h: 0.2 % release
  Bioelution of Co in gastric fluid / cobalt release (µg Co/g sample), 2 h: 1460 µg Co/g sample
Crl:CD(SD) rats [6]; 90-day oral gavage, all doses
  premature deaths: None of the animals died prematurely
Crl:CD(SD) rats [6]; 90-day oral gavage, rats
  LOAEL (systemic): 734 mg Co/kg bw/day
  NOAEL: 220 mg Co/kg bw/day
  NOAEL (reproductive): > 734 mg Co/kg bw/day
Crl:CD(SD) rats [6]; [12]
  HCT, %Diff vs control: −0.6%
  HCT, mean: 44.76%
  HGB, %Diff vs control: +0.2%
  HGB, mean: 9.51 mmol/L
  RBC, mean: 8.17 ×10E6/µl
Crl:CD(SD) rats [6]; [13]
  HCT, %Diff vs control: +4.4%
  HCT, mean: 46.99%
  HGB, %Diff vs control: +5.9%
  HGB, mean: 10.09 mmol/L
  RBC, %Diff vs control: +5.6%
  RBC, mean: 8.74 ×10E6/µl
Crl:CD(SD) rats [6]; [14]
  HCT, %Diff vs control: +13.9%
  HCT, mean: 51.27%
  HGB, %Diff vs control: +16.4%
  HGB, mean: 11.09 mmol/L
  RBC, %Diff vs control: +12.9%
  RBC, mean: 9.35 ×10E6/µl
Crl:CD(SD) rats [6]; [15]
  HCT, mean: • 40.76 • .530%
  HGB, mean: • 9.28 • .450 mmol/l
  RBC, mean: • 7.56 • .573 ×10E6/µl
Crl:CD(SD) rats [6]; [16]
  HCT, mean: • 50.76 ^* • .013%
  HGB, mean: • 10.86 ^* • .032 mmol/l
  RBC, mean: • 9.12 • .17 ×10E6/µl
Crl:CD(SD) rats [6]; [17]
  HCT, %Diff vs control: +2.6%
  HCT, mean: 49.53%
  HGB, %Diff vs control: +2.2%
  HGB, mean: 10.29 mmol/L
  PLT, %Diff vs control: +4.2%
  PLT, mean: 896.5 ×10E3/µl
  RBC, %Diff vs control: +1.1%
  RBC, mean: 9.30 ×10E6/µl
Crl:CD(SD) rats [6]; [18]
  HCT, %Diff vs control: +9.2%
  HCT, mean: 52.73%
  HGB, %Diff vs control: +9.5%
  HGB, mean: 11.03 mmol/L
  PLT, mean: 796.1 ×10E3/µl
  RBC, %Diff vs control: +9.6%
  RBC, mean: 10.08 ×10E6/µl
Crl:CD(SD) rats [6]; [19]
  HCT, %Diff vs control: +24.2%
  HCT, mean: 59.97%
  HGB, %Diff vs control: +25.4%
  HGB, mean: 12.63 mmol/L
  PLT, mean: 573.9 ×10E3/µl
  RBC, %Diff vs control: +22.7%
  RBC, mean: 11.29 ×10E6/µl
Crl:CD(SD) rats [6]; [20]
  HCT, mean: • 50.38 • .126%
  HGB, mean: • 10.82 • .075 mmol/l
  PLT, mean: • 882.4 • .285 ×10E3/µl
  RBC, mean: • 9.47 • .052 ×10E6/µl
Crl:CD(SD) rats [6]; [21]
  HCT, mean: • 60.96** • 9.1E−06%
  HGB, mean: • 12.78** • 2.4E−06 mmol/l
  PLT, mean: • 645.6** • .0085 ×10E3/µl
  RBC, mean: • 11.3** • 7.1E−05 ×10E6/µl
[7]; females
  C max: 1.10 ng/mL
  K el: 0.0430 h⁻¹
  t 1/2: 16.1 h
[7]; males
  C max: 2.08 ng/mL
  K el: 0.0402 h⁻¹
  t 1/2: 17.3 h
[7]; rats
  oral bioavailability: below 0.1%
Crl:CD(SD) rats [8]; 220 mg Co/kg bw/day, lactation day 1
  food intake of dams reduced compared with the control: 30%
Crl:CD(SD) rats [8]; lactation day 0/1
  mean body weight of pups below the control: up to 18%
Crl:CD(SD) rats [8]; lactation day 4
  mean body weight of pups below the control: up to 21%
Crl:CD(SD) rats [8]
  premature deaths: None of the animals died prematurely
  NOAEL (F0 generation): 734 mg Co/kg bw/day
  NOAEL (F1 generation): 220 mg Co/kg bw/day
  NOAEL (reproductive toxicity): > 734 mg test item/kg bw/day

## Cobalt sulfide [CoS]
Rats [1]; OECD 401 or 425
  Acute LD50 (mg Co/kg bw): > 7124 mg Co/kg bw
  Acute LD50 (mg substance/kg bw): exceeding 11 000 mg substance/kg bw
Rats [1]; OECD 401 or 425, listed as Co Sulfide
  Acute LD50 (mg substance/kg bw): > 11 000 mg substance/kg bw
[3]; simulated intestinal fluid pH 7.4
  solubility in intestinal fluid: poorly soluble
[3]
  Bioelution of Co in intestinal fluid (% release): 0.33 (24 h) % release
[3]; listed as Co Sulfide
  Bioelution of Co in intestinal fluid / cobalt release (µg Co/g sample): 2180 (24 h) µg Co/g sample
[5]; simulated gastric fluid pH 1.5
  solubility in gastric fluid: poorly soluble
[5]
  Bioelution of Co in gastric fluid (% release), 2 h: 0.58 % release
[5]; listed as Co Sulfide
  Bioelution of Co in gastric fluid / cobalt release (µg Co/g sample), 2 h: 3820 µg Co/g sample
[7]; females
  C max: 2.01 ng/mL
  K el: 0.0464 h⁻¹
  t 1/2: 14.9 h
  Bioavailability (relative): 0.09 (relative) %
[7]; males
  C max: 2.01 ng/mL
  K el: 0.0413 h⁻¹
  t 1/2: 16.8 h
  Bioavailability (relative): 0.08 (relative) %
[7]; oral, rats, average of males and females
  Bioavailability calculated from AUC as % of CoCl2 IV AUC, average of m + f: relative bioavailability: Relative bioavailability 0.08%
[7]; rats
  oral bioavailability: below 0.1%
Crl:CD(SD) rats [8]
  premature deaths: None of the exposed animals died prematurely
  NOAEL (F0 generation): 648 mg Co/kg bw/day
  NOAEL (F1 generation): > 648 mg Co/kg bw/day
  NOAEL (reproductive toxicity): > 648 mg Co/kg bw/day

## O.O.O.O.O.O.O.O=S(=O)([O-])[O-].[Co+2] [CoSO4, Cobalt sulfate heptahydrate]
Rats [9]
  Acute LD50 (mg Co/kg bw): 65 mg Co/kg bw
  Acute LD50 (mg substance/kg bw): below 1000 mg substance/kg bw
Rats [9]; [22]
  Acute LD50 (mg substance/kg bw): 310 [Domingo et al. (1984)] mg substance/kg bw
[3]
  Bioelution of Co in intestinal fluid (% release): 64 (24 h) % release
[3]; [22]
  Bioelution of Co in intestinal fluid / cobalt release (µg Co/g sample): 139 000 (24 h) µg Co/g sample
[5]
  Bioelution of Co in gastric fluid (% release), 2 h: 99.7 % release
